Holding throughout (test): KINOMEscan competition binding
One assay concerns the target AMPK-alpha1 (Homo sapiens, UniProt Q13131). The settings on record: read-out: %Inh AMPK-alpha1.
The next assay has as its target BIKE (Homo sapiens, UniProt Q9NSY1). The note with it: read-out: %Inh BIKE.
Another assay has as its target CDK9 (Homo sapiens, UniProt P50750). The note with it: read-out: %Inh CDK9.
Another assay has as its target CDKL3 (Homo sapiens, UniProt Q8IVW4). The settings on record: read-out: %Inh CDKL3.
The target in another assay is CHEK2 (Homo sapiens, UniProt O96017). The note with it: read-out: %Inh CHEK2.
Another assay deals with DYRK1A (Homo sapiens, UniProt Q13627). The note with it: read-out: %Inh DYRK1A.
The target in another assay is T1, GCN2(Kin.Dom.2,S808G) (Homo sapiens, UniProt Q9P2K8, S808G).
T1 sequence (Q9P2K8 590-1001 S808G limits assumed): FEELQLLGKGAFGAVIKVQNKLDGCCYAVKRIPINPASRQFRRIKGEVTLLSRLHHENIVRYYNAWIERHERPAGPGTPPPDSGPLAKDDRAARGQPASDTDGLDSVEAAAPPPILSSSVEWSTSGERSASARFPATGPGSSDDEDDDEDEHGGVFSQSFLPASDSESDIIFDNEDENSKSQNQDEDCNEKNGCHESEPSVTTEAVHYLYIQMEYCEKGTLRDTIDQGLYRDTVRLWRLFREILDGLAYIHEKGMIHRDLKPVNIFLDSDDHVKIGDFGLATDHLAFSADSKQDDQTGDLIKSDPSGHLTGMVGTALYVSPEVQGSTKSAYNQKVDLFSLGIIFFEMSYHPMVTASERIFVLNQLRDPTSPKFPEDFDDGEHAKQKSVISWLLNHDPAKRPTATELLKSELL
The note with it: read-out: %Inh GCN2(Kin.Dom.2,S808G).

In a further assay the target is T2, IKK-alpha (Homo sapiens, UniProt O15111).
T2 sequence (O15111 1-745): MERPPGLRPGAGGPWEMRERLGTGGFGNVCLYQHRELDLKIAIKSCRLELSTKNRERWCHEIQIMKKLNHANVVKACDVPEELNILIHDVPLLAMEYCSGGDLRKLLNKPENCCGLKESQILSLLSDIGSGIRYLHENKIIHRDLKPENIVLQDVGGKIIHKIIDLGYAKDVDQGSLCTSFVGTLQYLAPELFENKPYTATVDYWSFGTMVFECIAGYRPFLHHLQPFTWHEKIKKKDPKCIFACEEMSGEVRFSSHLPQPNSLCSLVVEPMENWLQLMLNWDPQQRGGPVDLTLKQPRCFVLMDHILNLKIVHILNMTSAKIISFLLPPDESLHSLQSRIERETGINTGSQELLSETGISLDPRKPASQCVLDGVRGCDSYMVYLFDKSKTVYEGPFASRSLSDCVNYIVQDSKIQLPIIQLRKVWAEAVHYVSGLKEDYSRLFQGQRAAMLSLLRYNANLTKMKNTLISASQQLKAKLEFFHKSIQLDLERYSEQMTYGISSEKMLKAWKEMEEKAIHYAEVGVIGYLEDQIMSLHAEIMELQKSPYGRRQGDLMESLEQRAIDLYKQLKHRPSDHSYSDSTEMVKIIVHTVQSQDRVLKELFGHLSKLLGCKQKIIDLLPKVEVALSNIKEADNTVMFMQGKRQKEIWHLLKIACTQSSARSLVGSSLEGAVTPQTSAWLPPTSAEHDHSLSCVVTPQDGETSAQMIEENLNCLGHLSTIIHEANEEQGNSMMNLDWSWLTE
The note with it: read-out: %Inh IKK-alpha.

Another assay addresses T3, LATS1 (Homo sapiens, UniProt O95835).
T3 sequence (O95835 1-1130): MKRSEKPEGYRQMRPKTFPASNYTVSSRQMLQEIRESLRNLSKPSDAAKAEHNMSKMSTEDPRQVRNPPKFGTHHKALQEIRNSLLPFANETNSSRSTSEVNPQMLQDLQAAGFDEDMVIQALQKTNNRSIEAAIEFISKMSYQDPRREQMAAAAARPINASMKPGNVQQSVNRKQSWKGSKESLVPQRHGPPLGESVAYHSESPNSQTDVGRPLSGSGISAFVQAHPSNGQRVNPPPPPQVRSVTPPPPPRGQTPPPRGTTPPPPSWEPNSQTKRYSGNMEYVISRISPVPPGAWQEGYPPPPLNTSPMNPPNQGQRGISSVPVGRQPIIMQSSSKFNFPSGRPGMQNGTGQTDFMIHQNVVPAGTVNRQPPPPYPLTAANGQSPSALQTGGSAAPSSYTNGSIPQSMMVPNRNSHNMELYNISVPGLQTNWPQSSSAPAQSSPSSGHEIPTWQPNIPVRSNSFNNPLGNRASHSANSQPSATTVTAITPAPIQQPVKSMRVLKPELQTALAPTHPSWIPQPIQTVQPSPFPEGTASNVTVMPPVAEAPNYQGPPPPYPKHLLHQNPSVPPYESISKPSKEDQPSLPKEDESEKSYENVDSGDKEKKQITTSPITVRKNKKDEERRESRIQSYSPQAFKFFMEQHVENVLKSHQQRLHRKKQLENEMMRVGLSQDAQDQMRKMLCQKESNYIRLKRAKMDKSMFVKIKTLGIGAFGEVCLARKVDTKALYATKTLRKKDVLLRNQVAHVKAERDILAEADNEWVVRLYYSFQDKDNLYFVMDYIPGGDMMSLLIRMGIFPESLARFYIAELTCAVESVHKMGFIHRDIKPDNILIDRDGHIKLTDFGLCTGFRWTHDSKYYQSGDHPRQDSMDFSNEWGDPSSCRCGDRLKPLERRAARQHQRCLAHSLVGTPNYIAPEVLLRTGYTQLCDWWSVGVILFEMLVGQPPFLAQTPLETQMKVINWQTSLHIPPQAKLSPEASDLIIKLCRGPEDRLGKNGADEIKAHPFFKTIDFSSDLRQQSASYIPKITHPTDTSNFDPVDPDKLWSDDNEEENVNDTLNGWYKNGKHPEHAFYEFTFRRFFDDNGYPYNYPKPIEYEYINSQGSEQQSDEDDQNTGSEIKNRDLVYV
The note with it: read-out: %Inh LATS1.

SMILES strings stand for the structures.

Sequence of AMPK-alpha1 (Q13131 whole entry): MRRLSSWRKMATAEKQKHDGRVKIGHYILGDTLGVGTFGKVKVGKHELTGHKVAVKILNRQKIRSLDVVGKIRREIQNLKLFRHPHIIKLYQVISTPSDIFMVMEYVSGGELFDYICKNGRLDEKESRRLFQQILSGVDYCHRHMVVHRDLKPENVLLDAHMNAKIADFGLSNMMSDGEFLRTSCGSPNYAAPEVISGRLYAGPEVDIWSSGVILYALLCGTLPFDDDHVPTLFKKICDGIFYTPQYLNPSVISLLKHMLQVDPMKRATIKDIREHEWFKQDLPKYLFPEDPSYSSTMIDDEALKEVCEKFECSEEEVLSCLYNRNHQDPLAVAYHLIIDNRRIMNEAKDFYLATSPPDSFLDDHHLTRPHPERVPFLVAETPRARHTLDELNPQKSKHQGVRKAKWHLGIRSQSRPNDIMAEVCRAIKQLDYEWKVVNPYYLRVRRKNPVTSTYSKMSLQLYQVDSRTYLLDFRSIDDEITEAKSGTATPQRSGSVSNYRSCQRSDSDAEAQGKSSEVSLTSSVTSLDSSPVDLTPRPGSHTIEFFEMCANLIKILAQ
Sequence of BIKE (Q9NSY1 whole entry): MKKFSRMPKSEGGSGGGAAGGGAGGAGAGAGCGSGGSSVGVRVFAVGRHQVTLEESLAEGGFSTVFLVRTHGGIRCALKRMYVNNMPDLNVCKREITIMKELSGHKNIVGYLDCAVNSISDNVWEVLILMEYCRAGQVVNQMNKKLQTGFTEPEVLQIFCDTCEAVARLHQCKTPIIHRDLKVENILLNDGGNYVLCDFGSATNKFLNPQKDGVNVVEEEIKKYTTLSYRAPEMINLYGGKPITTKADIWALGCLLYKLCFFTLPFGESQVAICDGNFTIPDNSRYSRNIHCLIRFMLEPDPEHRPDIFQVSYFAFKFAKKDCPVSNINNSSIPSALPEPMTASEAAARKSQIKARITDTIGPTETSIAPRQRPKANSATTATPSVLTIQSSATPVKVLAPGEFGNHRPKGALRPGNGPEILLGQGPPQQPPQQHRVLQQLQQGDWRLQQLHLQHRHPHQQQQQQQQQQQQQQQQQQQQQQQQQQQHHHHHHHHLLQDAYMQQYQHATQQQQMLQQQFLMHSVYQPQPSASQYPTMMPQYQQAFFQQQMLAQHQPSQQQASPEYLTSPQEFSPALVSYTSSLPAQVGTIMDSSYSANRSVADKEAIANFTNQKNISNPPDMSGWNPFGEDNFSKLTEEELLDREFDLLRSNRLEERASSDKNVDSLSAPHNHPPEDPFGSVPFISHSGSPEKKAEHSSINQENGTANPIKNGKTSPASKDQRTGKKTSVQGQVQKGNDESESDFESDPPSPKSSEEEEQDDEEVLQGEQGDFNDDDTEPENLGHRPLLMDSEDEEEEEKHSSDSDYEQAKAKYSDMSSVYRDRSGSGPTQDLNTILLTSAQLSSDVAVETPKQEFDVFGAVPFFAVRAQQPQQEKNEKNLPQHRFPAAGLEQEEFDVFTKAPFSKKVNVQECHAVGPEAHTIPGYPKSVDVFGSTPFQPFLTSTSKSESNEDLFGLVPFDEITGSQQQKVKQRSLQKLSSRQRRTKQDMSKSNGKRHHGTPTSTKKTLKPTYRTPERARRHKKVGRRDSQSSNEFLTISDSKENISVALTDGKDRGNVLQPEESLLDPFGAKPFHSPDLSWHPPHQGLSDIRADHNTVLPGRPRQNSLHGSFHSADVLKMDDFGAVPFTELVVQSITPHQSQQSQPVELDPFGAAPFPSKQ
Sequence of CDK9 (P50750 whole entry): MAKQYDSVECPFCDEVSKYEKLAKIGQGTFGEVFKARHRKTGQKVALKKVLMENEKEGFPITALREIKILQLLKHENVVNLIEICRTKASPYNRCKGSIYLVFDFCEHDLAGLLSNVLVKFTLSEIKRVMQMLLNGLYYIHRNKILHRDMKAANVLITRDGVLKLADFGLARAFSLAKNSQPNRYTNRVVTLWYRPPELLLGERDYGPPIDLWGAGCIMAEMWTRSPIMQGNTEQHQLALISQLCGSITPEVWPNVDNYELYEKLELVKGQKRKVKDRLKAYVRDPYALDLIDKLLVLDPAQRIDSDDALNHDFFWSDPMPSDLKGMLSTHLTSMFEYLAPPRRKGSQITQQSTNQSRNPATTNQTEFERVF
Sequence of CHEK2 (O96017 whole entry): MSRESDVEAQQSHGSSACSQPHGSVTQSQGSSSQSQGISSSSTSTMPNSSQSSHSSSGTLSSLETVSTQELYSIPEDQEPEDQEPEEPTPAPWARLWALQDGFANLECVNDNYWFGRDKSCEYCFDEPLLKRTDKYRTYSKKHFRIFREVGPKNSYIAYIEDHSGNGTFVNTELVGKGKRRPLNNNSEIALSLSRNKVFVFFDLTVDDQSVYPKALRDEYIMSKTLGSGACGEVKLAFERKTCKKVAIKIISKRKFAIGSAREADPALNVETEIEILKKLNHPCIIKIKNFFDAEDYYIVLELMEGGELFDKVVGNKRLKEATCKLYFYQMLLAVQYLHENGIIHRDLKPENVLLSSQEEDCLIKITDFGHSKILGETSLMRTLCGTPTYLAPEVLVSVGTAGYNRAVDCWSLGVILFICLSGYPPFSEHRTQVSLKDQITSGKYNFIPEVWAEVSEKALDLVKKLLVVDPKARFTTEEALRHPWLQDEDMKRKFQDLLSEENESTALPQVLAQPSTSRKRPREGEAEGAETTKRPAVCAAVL
Sequence of CDKL3 (Q8IVW4 whole entry): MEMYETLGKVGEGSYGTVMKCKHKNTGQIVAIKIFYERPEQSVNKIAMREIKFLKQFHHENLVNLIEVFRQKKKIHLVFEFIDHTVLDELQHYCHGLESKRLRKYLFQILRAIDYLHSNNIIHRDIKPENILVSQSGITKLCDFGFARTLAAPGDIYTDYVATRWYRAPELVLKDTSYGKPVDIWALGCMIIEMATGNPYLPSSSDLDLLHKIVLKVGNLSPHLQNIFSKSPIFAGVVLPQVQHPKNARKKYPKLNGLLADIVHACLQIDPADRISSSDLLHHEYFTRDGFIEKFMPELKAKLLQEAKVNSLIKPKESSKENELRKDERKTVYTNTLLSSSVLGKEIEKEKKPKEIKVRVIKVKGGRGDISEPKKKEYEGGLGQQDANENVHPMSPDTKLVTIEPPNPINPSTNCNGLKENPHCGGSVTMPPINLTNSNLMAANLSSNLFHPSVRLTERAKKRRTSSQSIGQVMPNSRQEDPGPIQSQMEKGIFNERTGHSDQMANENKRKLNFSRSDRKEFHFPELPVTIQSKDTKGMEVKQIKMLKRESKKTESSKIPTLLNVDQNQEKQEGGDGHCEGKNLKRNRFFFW

With `O=c1cc(N2CCOCC2)nc2n(Cc3cccc(Cl)c3Cl)c(C3CC3)nn12` [UNC10225469A], the inhibition at 1 µM is 5% on AMPK-alpha1; 0% on BIKE; 0% on CDK9; 0% on CDKL3; 0% at CHEK2; 2% on DYRK1A. Also, the inhibition at 1 µM on GCN2(Kin.Dom.2,S808G), at IKK-alpha and at LATS1 was 0% in each case.

For `COc1cccc(OC)c1C(=O)Nc1cccc(-c2nn3ccccc3c2-c2ccnc(Nc3cccc(F)c3)n2)c1` [UNC10225310A], the inhibition at 1 µM on AMPK-alpha1 was 25%; at BIKE it was 0%; at CDK9 it was 0%; on CDKL3, 3%; at CHEK2, 0%; on DYRK1A, 0%. For the same compound, the inhibition at 1 µM amounted to 0% at GCN2(Kin.Dom.2,S808G), 0% on IKK-alpha and 6% at LATS1.

Take `CS(=O)(=O)Cc1ccc(Nc2nccc(-c3c(-c4cccc(NC(=O)C5CCCCC5)c4)nn4ncccc34)n2)cc1` [UNC10225159A]: the inhibition at 1 µM at AMPK-alpha1 was found to be 2%; at BIKE, 1%; at CDK9, 0%; at CDKL3 it was 0%; at CHEK2, 0%; on DYRK1A it was 26%. In addition, the inhibition at 1 µM on GCN2(Kin.Dom.2,S808G), on IKK-alpha and at LATS1 was 0% throughout.

As to `Cc1ccc(NC(=O)Nc2cccc(C(F)(F)F)c2)cc1` [UNC10225187A], the inhibition at 1 µM on AMPK-alpha1 came out at 0%; on BIKE, 4%; at CDK9, 0%; at CDKL3, 4%; on CHEK2, 0%; on DYRK1A it was 0%. Also, the inhibition at 1 µM at GCN2(Kin.Dom.2,S808G), at IKK-alpha and at LATS1 was 0% each time.

As to `Cn1cc(-c2cnc(N)c3c(-c4ccc5c(c4)CCN5C(=O)Cc4ccccc4)csc23)cn1` [UNC10225012A], the inhibition at 1 µM at AMPK-alpha1 amounted to 17%; at BIKE, 0%; at CDK9, 0%; at CDKL3, 4%; on CHEK2 it was 0%; on DYRK1A it was 0%. Also, the inhibition at 1 µM was 91.2% on GCN2(Kin.Dom.2,S808G), 0% on IKK-alpha and 1% at LATS1.
